Experiments:
[1] = target: T1, ACC2 (acetyl-CoA carboxylase 2) (Homo sapiens, UniProt O00763); test: Human ACC2 enzyme assay (HTRF ADP detection); assay type: biochemical; conditions: 20 μM acetyl-CoA, 15 min pre-incubation, 20 min at 22° C.; read-out: ACC 2 IC50
T1 construct: catalogue no; 50201, amino acids 39—end, expressed in baculovirus-transfected Sf9 insect cells; His (C); purchased BPS Bioscience (San Diego, Calif.) 50201; host or cells: baculovirus-transfected Sf9 insect cells

[2] = target: T2, recombinant human ACC1 (acetyl-CoA carboxylase 1) (Homo sapiens, UniProt Q13085); test: Human ACC1 enzyme assay (HTRF ADP detection); assay type: biochemical; conditions: 50 μM ATP, 20 μM acetyl-CoA, 15 min pre-incubation, 20 min at 22° C.; read-out: ACC 1 IC50;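 note: ADP by-product quantified by competitive HTRF immunoassay with europium cryptate anti-ADP antibody and d2-labelled ADP, read after 1 h binding at 22 °C, enzyme near 2.5 ng/µl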
T2 construct: NM_198834, amino acids 39—end; FLAG (C); made in house; host or cells: baculovirus-transfected insect cells (Hi5)
Experimental: The basic principle of the assay is the measurement of adenosine diphosphate (ADP), which is formed as a by-product, by means of an HTRF®-based competitive immunoassay (HTRF=Homogeneous Time Resolved Fluorescence).
The amount of complex of d2-labelled ADP and europium cryptate-labelled anti-ADP antibody was then determined by measuring the resonance energy transfer of europium cryptate to d2.

T1 sequence (O00763 39-2458 limits assumed): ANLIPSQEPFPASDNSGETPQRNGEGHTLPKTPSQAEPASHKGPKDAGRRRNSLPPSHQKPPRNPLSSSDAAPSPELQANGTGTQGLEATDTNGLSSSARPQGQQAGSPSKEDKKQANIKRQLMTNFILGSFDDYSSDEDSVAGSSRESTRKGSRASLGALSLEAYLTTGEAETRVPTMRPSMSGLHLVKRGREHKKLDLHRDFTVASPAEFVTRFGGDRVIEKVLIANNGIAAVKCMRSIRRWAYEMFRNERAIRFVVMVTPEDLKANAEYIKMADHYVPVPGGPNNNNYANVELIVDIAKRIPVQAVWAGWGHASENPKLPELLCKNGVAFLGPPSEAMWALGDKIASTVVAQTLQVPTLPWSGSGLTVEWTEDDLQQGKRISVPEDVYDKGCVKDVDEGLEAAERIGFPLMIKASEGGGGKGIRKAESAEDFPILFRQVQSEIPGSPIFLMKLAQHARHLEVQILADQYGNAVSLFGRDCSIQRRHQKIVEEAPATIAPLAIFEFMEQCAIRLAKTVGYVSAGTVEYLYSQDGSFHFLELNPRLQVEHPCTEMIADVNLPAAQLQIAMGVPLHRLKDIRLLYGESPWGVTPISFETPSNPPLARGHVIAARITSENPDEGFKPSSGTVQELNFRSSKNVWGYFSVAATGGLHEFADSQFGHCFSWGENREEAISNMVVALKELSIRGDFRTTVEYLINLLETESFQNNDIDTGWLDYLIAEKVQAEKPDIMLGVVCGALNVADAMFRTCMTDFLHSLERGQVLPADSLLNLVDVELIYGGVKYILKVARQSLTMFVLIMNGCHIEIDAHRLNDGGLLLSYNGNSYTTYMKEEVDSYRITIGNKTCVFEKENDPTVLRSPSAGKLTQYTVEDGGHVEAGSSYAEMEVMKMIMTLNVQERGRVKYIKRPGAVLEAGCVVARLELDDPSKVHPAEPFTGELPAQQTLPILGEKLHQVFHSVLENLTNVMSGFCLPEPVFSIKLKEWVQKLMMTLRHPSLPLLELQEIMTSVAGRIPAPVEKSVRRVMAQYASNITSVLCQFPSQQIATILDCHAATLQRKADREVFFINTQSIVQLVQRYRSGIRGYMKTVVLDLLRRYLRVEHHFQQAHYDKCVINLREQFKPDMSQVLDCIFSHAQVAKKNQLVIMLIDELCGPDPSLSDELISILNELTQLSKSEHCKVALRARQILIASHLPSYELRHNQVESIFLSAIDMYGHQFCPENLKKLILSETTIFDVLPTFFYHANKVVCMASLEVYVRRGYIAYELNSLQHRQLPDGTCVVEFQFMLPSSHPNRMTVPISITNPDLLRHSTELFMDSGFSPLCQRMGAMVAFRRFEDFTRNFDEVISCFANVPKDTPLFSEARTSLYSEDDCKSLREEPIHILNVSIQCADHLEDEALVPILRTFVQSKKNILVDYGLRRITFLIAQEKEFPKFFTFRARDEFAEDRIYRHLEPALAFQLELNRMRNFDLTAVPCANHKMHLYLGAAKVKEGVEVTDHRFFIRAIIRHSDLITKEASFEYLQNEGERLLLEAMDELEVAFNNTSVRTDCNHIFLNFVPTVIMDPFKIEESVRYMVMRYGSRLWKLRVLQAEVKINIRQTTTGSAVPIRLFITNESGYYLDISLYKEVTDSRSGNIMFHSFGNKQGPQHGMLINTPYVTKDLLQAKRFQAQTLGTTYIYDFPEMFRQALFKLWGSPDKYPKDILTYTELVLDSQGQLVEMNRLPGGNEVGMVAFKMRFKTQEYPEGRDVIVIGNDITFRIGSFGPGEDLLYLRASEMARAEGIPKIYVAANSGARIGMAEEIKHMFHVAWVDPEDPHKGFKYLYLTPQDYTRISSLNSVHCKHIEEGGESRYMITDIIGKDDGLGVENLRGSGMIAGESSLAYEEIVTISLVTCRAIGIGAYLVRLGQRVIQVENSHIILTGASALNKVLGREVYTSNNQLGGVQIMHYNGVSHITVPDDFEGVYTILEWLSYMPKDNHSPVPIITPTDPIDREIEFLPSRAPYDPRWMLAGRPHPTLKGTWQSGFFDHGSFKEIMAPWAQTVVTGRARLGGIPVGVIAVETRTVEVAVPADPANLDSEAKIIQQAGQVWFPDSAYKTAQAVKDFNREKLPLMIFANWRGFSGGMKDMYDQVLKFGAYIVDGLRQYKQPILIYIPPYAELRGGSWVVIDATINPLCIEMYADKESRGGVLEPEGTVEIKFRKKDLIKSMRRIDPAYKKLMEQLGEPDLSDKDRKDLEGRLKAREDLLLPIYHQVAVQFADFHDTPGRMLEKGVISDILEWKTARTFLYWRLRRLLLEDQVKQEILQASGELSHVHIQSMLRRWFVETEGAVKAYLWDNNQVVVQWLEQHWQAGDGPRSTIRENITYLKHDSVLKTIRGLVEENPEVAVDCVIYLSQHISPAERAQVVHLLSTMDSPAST

Structure (SMILES) | IC50 [1] [nM] | IC50 [2] [nM]
COCC1CCCC2(C1)NC(=O)C(c1cc(-c3ccc(Cl)cc3)ccc1Cl)=C2O (stereo not shown) [Example 1-52, 3-(4,4′-dichlorobiphenyl-3-yl)-4-hydroxy-7-(methoxymethyl)-1-azaspiro[4.5]dec-3-en-2-one] | > 20000 | 1270
Cc1ccc(-c2ccc(F)cc2)c(C)c1C1=C(O)C2(CCC(OCC(F)(F)F)CC2)NC1=O (stereo not shown) [Example 1-31, 3-(4′-fluoro-2,4-dimethylbiphenyl-3-yl)-4-hydroxy-8-(2,2,2-trifluoroethoxy)-1-azaspiro[4.5]dec-3-en-2-one] | 5960 | 963
Cc1ccc(-c2ccc(Cl)cc2)cc1C1=C(O)C2(CCCC2)NC1=O [Example 1-85, 3-(4′-chloro-4-methylbiphenyl-3-yl)-4-hydroxy-1-azaspiro[4.4]non-3-en-2-one] | 4000 | 340
COC1CCC2(CC1)NC(=O)C(c1cc(-c3ccc(Cl)cc3)c(C)cc1C)=C2O (stereo not shown) [Example 1-7, 3-(4′-chloro-4,6-dimethylbiphenyl-3-yl)-4-hydroxy-8-methoxy-1-azaspiro[4.5]dec-3-en-2-one] | 87 | 1700
Cc1ccc(-c2ccc(Cl)cc2)cc1C1=C(O)C2(CCCOC2)NC1=O (stereo not shown) [Example 1-5, 3-(4′-chloro-4-methylbiphenyl-3-yl)-4-hydroxy-7-oxa-1-azaspiro[4.5]dec-3-en-2-one] | 8240 | 287
COC1CCC2(CC1)NC(=O)C(c1cc(-c3cc(F)ccc3F)ccc1C)=C2O (stereo not shown) [Example 1-80, 3-(2′,5′-difluoro-4-methylbiphenyl-3-yl)-4-hydroxy-8-methoxy-1-azaspiro[4.5]dec-3-en-2-one] | > 20000 | 695
Cc1ccc(-c2ccc(Cl)cc2)cc1C1=C(O)C(C)(C)OC1=O [Example 2-3, 3-(4′-chloro-4-methylbiphenyl-3-yl)-4-hydroxy-5,5-dimethylfuran-2(5H)-one] | 11700 | 581
COC1CCC2(C1)NC(=O)C(c1c(C)ccc(-c3ccc(Cl)cc3)c1C)=C2O (stereo not shown) [Example 1-48, 3-(4′-chloro-2,4-dimethylbiphenyl-3-yl)-4-hydroxy-7-methoxy-1-azaspiro[4.4]non-3-en-2-one] | 8600 | 1010
COCC1CCC2(CC1)OC(=O)C(c1cc(-c3ccc(Cl)cc3)ccc1C)=C2O (stereo not shown) [Example 2-20, 3-(4′-chloro-4-methylbiphenyl-3-yl)-4-hydroxy-8-(methoxymethyl)-1-oxaspiro[4.5]dec-3-en-2-one] | 1930 | 137
Cc1ccc(-c2ccc(Cl)cc2)cc1C1=C(O)C2(CCC3(CC2)OCCO3)NC1=O [Example 1-60, 11-(4′-chloro-4-methylbiphenyl-3-yl)-12-hydroxy-1,4-dioxa-9-azadispiro[4.2.4.2]tetradec-11-en-10-one] | 2330 | 237
CCc1cc(C)cc(Br)c1C1=C(O)C2(CCCCC2)OC1=O [Example C-4, reference compound] | > 20000 | 5400
Cc1ccc(-c2ccc(Cl)cc2)cc1C1=C(O)CN(C)C1=O [Example 1-16, 3-(4′-chloro-4-methylbiphenyl-3-yl)-4-hydroxy-1-methyl-1,5-dihydro-2H-pyrrol-2-one] | > 20000 | 329
COC1CCCC2(C1)OC(=O)C(c1cc(-c3ccc(Cl)cc3)ccc1C)=C2O (stereo not shown) [Example 2-14, 3-(4′-chloro-4-methylbiphenyl-3-yl)-4-hydroxy-7-methoxy-1-oxaspiro[4.5]dec-3-en-2-one] | 19400 | 562
Cc1ccc(-c2ccc(Cl)cc2)c(C)c1C1C(=O)N2CCOCCN2C1=O [Example 8-8, 8-(4′-chloro-2,4-dimethylbiphenyl-3-yl)tetrahydro-7H-pyrazolo[1,2-d][1,4,5]oxadiazepine-7,9(8H)-dione] | 16900 | 936
O=C1C(c2cc(-c3ccc(Cl)cc3Cl)ccc2Cl)C(=O)N2CCOCCN12 [Example 8-9, 8-(2′,4,4′-trichlorobiphenyl-3-yl)tetrahydro-7H-pyrazolo[1,2-d][1,4,5]oxadiazepine-7,9(8H)-dione] | > 20000 | 457
COCCC1CCCC2(C1)OC(=O)C(c1cc(-c3ccc(Cl)cc3)ccc1C)=C2O (stereo not shown) [Example 2-18, 3-(4′-chloro-4-methylbiphenyl-3-yl)-4-hydroxy-7-(2-methoxyethyl)-1-oxaspiro[4.5]dec-3-en-2-one] | 3410 | 479
CC[C@]1(OC)CC[C@@]2(CC1)NC(=O)C(c1c(C)ccc(-c3ccc(F)cc3)c1C)=C2O [Example 1-89, (5r,8r)-8-ethyl-3-(4′-fluoro-2,4-dimethylbiphenyl-3-yl)-4-hydroxy-8-methoxy-1-azaspiro[4.5]dec-3-en-2-one] | > 20000 | 858
CCc1cc(-c2ccccc2)cc(Cl)c1C1C(=O)N2CCOCCN2C1=O [Example C-1, reference compound] | > 20000 | > 20000
Cc1ccc(-c2ccc(Cl)cc2)cc1C1=C(O)C2(CCCC2)CC1=O [Example 6-4, 3-(4′-chloro-4-methylbiphenyl-3-yl)-4-hydroxyspiro[4.4]non-3-en-2-one] | 3060 | 333
Cc1ccc(-c2ccc(Cl)cc2)cc1C1=C(O)C2(CCC3(CC2)OC(C)C(C)O3)NC1=O (stereo not shown) [Example 1-64, 11-(4′-chloro-4-methylbiphenyl-3-yl)-12-hydroxy-2,3-dimethyl-1,4-dioxa-9-azadispiro[4.2.4.2]tetradec-11-en-10-one] | 16400 | 985
Cc1cc(C)c(-c2ccc(Cl)cc2)cc1C1=C(O)CC(C)(C)CC1=O [Example 7-3, 2-(4′-chloro-4,6-dimethylbiphenyl-3-yl)-3-hydroxy-5,5-dimethylcyclohex-2-en-1-one] | 5340 | 1590
O=C1NC2(CCC3(CC2)OCCO3)C(O)=C1c1cc(-c2ccc(Cl)cc2)ccc1Cl [Example 1-61, 11-(4,4′-dichlorobiphenyl-3-yl)-12-hydroxy-1,4-dioxa-9-azadispiro[4.2.4.2]tetradec-11-en-10-one] | 3910 | 227
Cc1ccc(-c2ccc(F)cc2)c(C)c1C1C(=O)N2CCCCN2C1=O [Example 8-1, 2-(4′-fluoro-2,4-dimethylbiphenyl-3-yl)tetrahydro-1H-pyrazolo[1,2-a]pyridazine-1,3(2H)-dione] | > 20000 | 2460
Cc1ccc(-c2ccc(C(F)(F)F)cc2)cc1-c1c(O)c2ccc(F)cc2[nH]c1=O [Example 9-10, 7-fluoro-4-hydroxy-3-[4-methyl-4′-(trifluoromethyl)biphenyl-3-yl]quinolin-2(1H)-one] | > 20000 | 1690
Cc1ccc(-c2ccc(Cl)cc2)cc1C1=C(O)C2(CCC(C(C)C)CC2)NC1=O (stereo not shown) [Example 1-24, 3-(4′-chloro-4-methylbiphenyl-3-yl)-4-hydroxy-8-(propan-2-yl)-1-azaspiro[4.5]dec-3-en-2-one] | 210 | 340
COC1CCC2(CC1)OC(=O)C(c1cc(-c3ccc(Cl)cc3)c(C)cc1C)=C2O (stereo not shown) [Example 2-44, 3-(4′-chloro-4,6-dimethylbiphenyl-3-yl)-4-hydroxy-8-methoxy-1-oxaspiro[4.5]dec-3-en-2-one] | 160 | 297
